The values that follow come from US20120142015A1, “GFP FUSION PROTEINS AND THEIR USE” (The Board of Trustees of The University of Illinois, priority 2001, published 2012).

Assay [1] relates to Gαs-GFP. The assay is classed as cell-based.
The target of the next assay is β-adrenergic receptor. The experiment in a line: cell-based or functional assay.
The test system of assay [2] is Gαs-GFP. The assay is classed as cell-based. The source holds these as a separate data set.
Setting [3] is: living cells transfected with Gαs-GFP.

For cholera toxin, in the assay with Gαs-GFP [1], the “displacement of Gαs-GFP from the plasma membrane” value was “gradual displacement of Gαs-GFP from the plasma membrane throughout the cytoplasm”.
As to “Gαs-GFP fusion protein (GFP inserted within the internal amino acid sequence of long Gαs)”, in the assay with β-adrenergic receptor, the percent of cells with internalized Gαs-GFP in response to isoproterenol (20 µM) came out at 70%.
Consider `CC(C)NCC(O)c1ccc(O)c(O)c1` (centres unmarked) [isoproterenol], for which, in the assay with Gαs-GFP [2] (isoproterenol 20 μM, COS cells, 37° C., 58 cells in 15 experiments), the “cells showing internalized Gαs-GFP in response to isoproterenol” value is recorded as “Approximately 70%”. Moreover, in the assay on Gαs-GFP [2] (setting [3]), the “release of Gαs-GFP from plasma membrane into the cytoplasm” value was “rapid partial release of Gαs-GFP into the cytoplasm” and the “time after treatment at which extent of Gαs-GFP release from plasma membrane was maximal” value stood at 1 min.
